# According to patent publication US10300014B2, “Nasolacrimal drainage system implants for drug therapy” (Mati Therapeutics Inc., priority 2006, dated 2019):
# Legend:
# [1] = in water at 25° C.; cited from earlier work
# eye [2] = assay: sustained release doses of Bimatoprost, reduction in intraocular pressure; type: in vivo; settings: sustained release 20 to 200 ng daily, 0.2 to 2% of the daily drop dosage
# Method: Commercially available solution concentrations of Bimatoprost are 0.03% by weight, often delivered once per day. Although the sustained release amount of Bimatnoprost released each day can vary, a sustained release of […] per day corresponds to about 2% of the 15 μg of Bimatoprost applied with a single drop of a 0.03% solution.
# eye [3] = settings: cited from earlier work
# [4] = topical drop, drug available to the eye; cited from earlier work
smiles,measurement,setting,value
CCNC(=O)CCC/C=C\C[C@@H]1[C@@H](/C=C/[C@@H](O)CCc2ccccc2)[C@H](O)C[C@@H]1O [Bimatoprost],aqueous solubility,[1],0.3 mg/mL
same,reduction in intraocular pressure,eye [2],at least some reduction in intraocular pressure
CC(C)OC(=O)CCC/C=C\C[C@@H]1[C@@H](CC[C@@H](O)CCc2ccccc2)[C@H](O)C[C@@H]1O [Latanoprost],duration of effective IOP lowering,eye [3]; about 200 ng of drug remaining on the eye after a Xalatan drop (2.5 μg),at least 24 hours
same,IOP reduction relative to that of the 50 μg/mL QD dose,"eye [3]; lowest doses of 12.5 μg/mL QD or 15 μg/mL BID, eye drops",60-75%
CC(C)(C)NC[C@H](O)COc1nsnc1N1CCOCC1 [Timolol],bioavailability,[4],30-50%
